Measurements as given in article PMC8669712, “G Protein-Coupled Receptor GPR35 Suppresses Lipid Accumulation in Hepatocytes” (ACS Pharmacology & Translational Science, 2021).
Values joined by “and” are separate entries in the source; they are usually repeats but may differ in a detail not shown here. Equal entries are not always repeated.

How the values were obtained:
human GPR35a = human GPR35a (Homo sapiens, UniProt Q9HC97); experiment: β-arrestin-based interaction assay, agonist potency at human GPR35a; type: cell-based
[1] = test system: primary mouse hepatocytes; set-up: method as in Nam et al. 37; conditions: ref Nam et al. 37; read-out: EC50 to limit lipid accumulation in mouse hepatocytes; cited from earlier work
[2] = test system: high-fat diet-induced wild-type mice; set-up: method as in PMID 31189299; conditions: oral, 1 mg/kg, final 7 days of a 7-week-diet exposure; cited from earlier work
[3] = test system: hepatocytes from hGPR35a-HA-expressing mice; experiment: Label-free cellular impedance assay in hepatocytes from hGPR35a-HA-expressing mice; type: cell-based, mouse; conditions: lodoxamide 1 × 10^–7 M
[4] = test system: GPR35 genome-edited HepG2 clones; experiment: Label-free cellular impedance assay in GPR35 genome-edited HepG2 clones 19 and 27; type: cell-based, human; conditions: 1 × 10^–5 M
Excerpt: Expression of full-length mRNA from the GPR35 gene was eliminated using a dual synthetic gRNA/RNP approach[43] with one guide cutting the intron and one in the exon region to generate a nonfunctional GPR35 protein. The gRNAs were designed with the CRISPR Finder (Welcome Sanger Institute). HepG2 cells were transfected with the Neon Transfection System from Thermo Fisher Scientific (Waltham, MA), according to the manufacturer’s instructions. Briefly, CrRNA and tracrRNA were annealed to gRNA at 95 °C for 5 min. Next, cells were transfected with gRNA, Cas9, and the electroporation enhancer, according to the manufacturer’s instructions. All crRNAs, tracrRNA, SpCas9 nuclease, and the electroporation enhancer were purchased from Integrated DNA Technologies (Coralville, IA). Transfected cells were plated and analyzed for editing efficiency 24–48 h after electroporation. Single-cell clones were generated by single-cell FACS sorting. Clones were expanded and to access editing efficiency, genomic DNA from cell clones was extracted and subjected to PCR to confirm the genome deletion. To further quantify and capture the genomic DNA deletion, PCR primers listed in Table S1 were designed to amplify the genomic DNA surrounding the target site. The PCR primers were linked to the sequences of the Illumina Nextera adapters. The amplified PCR products were subjected to paired-end sequencing using NextSeq500 from Illumina using paired-end chemistry with a 150-bp read length. In addition, mRNA from KO clones was isolated and subjected to RT-PCR. To further confirm the abrogation of GPR35 activation in CRISPR KO clones, KO cells were seeded onto xCELLigence E plates (2 × 10^4 cells/well) for 24 h at 37 °C prior to the treatment of GPR35 agonists. The impedance was recorded using xCELLigence RTCA. […]
HepG2 cells were seeded onto xCELLigence E plates (2 × 10^4 cells/well) and incubated for 24 h at 37 °C. […] After the addition of GPR35 agonist or vehicle control, the impedance (represented as “cell index”) was recorded every 30 s over a 2 h period using xCELLigence RTCA (Agilent). […]

mouse GPR35 = mouse GPR35 (Mus musculus, UniProt Q9ES90); experiment: β-arrestin-based interaction assay, agonist potency at mouse GPR35; type: cell-based
HepG2 cells = experiment: Label-free cellular impedance assay (xCELLigence) in HepG2 cells; type: cell-based, human
Method: HepG2 cells were seeded onto xCELLigence E plates (2 × 10^4 cells/well) and incubated for 24 h at 37 °C. To evaluate GPR35 activation and its downstream G protein signaling, HepG2 cells or primary mouse hepatocytes were exposed to GPR35 antagonists or G protein inhibitors 1 h (overnight for Pertussis toxin) prior to GPR35 agonist stimulation. After the addition of GPR35 agonist or vehicle control, the impedance (represented as “cell index”) was recorded every 30 s over a 2 h period using xCELLigence RTCA (Agilent). Each experiment was repeated at least three times.

Sequence of mouse GPR35 (Q9ES90 whole entry): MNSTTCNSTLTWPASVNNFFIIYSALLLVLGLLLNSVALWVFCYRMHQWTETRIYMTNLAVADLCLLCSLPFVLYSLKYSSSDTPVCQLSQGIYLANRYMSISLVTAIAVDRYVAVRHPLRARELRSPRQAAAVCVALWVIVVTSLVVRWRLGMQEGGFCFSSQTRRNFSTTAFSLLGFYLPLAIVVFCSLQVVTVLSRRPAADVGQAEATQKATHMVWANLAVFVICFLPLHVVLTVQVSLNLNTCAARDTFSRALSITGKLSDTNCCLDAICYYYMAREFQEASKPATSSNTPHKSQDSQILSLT
Sequence of human GPR35a (Q9HC97 whole entry): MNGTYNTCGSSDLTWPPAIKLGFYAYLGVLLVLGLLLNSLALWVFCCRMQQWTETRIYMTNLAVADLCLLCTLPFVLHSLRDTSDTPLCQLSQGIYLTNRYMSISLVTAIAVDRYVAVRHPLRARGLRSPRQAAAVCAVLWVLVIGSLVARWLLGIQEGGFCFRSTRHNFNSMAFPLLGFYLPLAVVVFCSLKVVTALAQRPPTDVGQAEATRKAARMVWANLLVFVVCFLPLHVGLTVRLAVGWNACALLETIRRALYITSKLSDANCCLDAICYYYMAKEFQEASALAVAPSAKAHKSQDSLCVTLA

Which “ratio (log) (H/M)” value (human GPR35a; log ratio of potency at human GPR35a over mouse GPR35) does the source give for N#Cc1cc(NC(=O)C(=O)O)c(Cl)c(NC(=O)C(=O)O)c1 [lodoxamide, 2-[2-chloro-5-cyano-3-(oxaloamino)anilino]-2-oxoacetic acid] here?
The value was 2.66 ± 0.05.

And the EC50 (human GPR35a; β-arrestin-based interaction assay, read-out: human GPR35a, pEC50 (converted))?
The EC50 was 4.17 nM.

And the EC50 [1]?
The EC50 was 6.1 nM.

What about the “effect of treatment in high-fat diet-induced wild-type mice” value [2] of the same molecule?
Its value is “beneficial effects”.

What about the “cellular impedance response in hepatocytes from hGPR35a-HA-expressing mice” value [3] of the same molecule?
Its value is “time-dependent increase in cellular impedance”.

What about the “impedance signal in GPR35 genome-edited clones 19 and 27” value [4] of the same molecule?
The value was “not in either clone 19 or 27”.

What about the “fold lower potency at mouse GPR35 than at human GPR35” value (mouse GPR35; mouse versus human GPR35) of the same molecule?
Its value is ~450 fold and ~500 fold.

And the EC50 (mouse GPR35; β-arrestin-based interaction assay, read-out: mouse GPR35, pEC50 (converted))?
Its EC50 is 1910 nM.

What about the “impedance signal in parental HepG2 cells” value (HepG2 cells; 1 × 10^–5 M) of the same molecule?
The value was “produced positive signals”.

And the “time for the impedance signal to reach a plateau” value (HepG2 cells; HepG2 cells, lodoxamide 1 × 10^–8 M)?
The value was at most 5 min.
